Legend:
TREM-1 [1] = biological target: T1, TREM-1 (Homo sapiens, UniProt Q9NP99); assay: TREM-1 reporter cell line blocking study (GFP expression by flow cytometry); type: cell-based; set-up: expressed in transfected cells; host or cells: TREM-1 reporter cell line (GFP read-out); settings: for binding and activation of TREM-1 receptor on reporter cells (GFP expression): TREM-1-positive reporter cells, flow cytometry; for inhibitory effect on agonist-activated TREM-1-specific cells: preincubated with compound 4 hrs, then agonist antibody AF1278 for 24 hrs
T1 sequence (Q9NP99 21-234): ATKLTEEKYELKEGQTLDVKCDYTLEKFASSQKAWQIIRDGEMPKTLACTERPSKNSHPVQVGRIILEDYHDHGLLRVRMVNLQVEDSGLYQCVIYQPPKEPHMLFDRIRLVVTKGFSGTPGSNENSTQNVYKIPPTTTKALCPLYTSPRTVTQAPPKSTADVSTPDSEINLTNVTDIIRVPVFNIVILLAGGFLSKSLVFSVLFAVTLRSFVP
Method: FIG. 2A is a diagram showing that the engagement of human TREM-1 receptor activates a reporter cell line. […] FIG. 2C is a line graph of the flow cytometry data of FIG. 2B.
(§1) For blocking studies, TREM-1-positive cells were preincubated with each tested compounds for 4 hrs followed by stimulation with agonist antibody AF1278 for an additional 24 hrs (FIGS. 2A-2B).

neutrophils = assay: Assessment of cytotoxicity: number of neutrophils in TREM-1 agonist Ab-stimulated PBMCs; settings: human PBMCs, compound at 50 μM 2 hrs pretreatment, TREM-1 agonist Ab 24 hrs
Method: Peripheral blood mononuclear cells (PBMCs) were isolated from healthy volunteers and were stimulated with TREM-1 agonist Ab for 24 hrs, at concentration of 4 μg/ml (red) or pretreated with indicated compounds (at 50 μM) for 2 hrs and stimulated with agonist AB at concentration of 4 pg/mlfor 24 hrs (blue)

reporter cells = assay: Cytotoxicity on TREM-1 reporter cells; type: cell-based; settings: compared to Compound 118818
Method: as §1

B16F10 cells [2] = assay: Cell cycle assay via propidium iodide; type: cell-based, murine; settings: B16F10 cells with or without treatment
Method: (§2) B16F10 cells were cultured in 6 well plates incubated with either vehicle alone or vehicle with VJDT at 50 μM and streaks were made using a tip when cells were at 80% confluency. Streaks were photographed at 0 hrs or 24 hrs at 100×. B16F10 cells were treated with VJDT at 50 μM concentration followed by 10 μM CFSE labeling according to manufacturer's protocol. After 48 hrs cells were analyzed by flow cytometry for CFSE intensity that will be inversely proportional to cell proliferation. Further, cell cycle assay via propidium iodide on B16F10 cells with or without VIDT treatment was performed for investigating the anti-proliferative effect of VJDT in tumor cells

[3] = test system: human hepatocellular carcinoma cells (HepG2); assay: Cell proliferation, Cell Counting Kit-8 (CCK-8); type: cell-based; settings: HepG2, 72 hrs treatment, n=6, read-out: IC50 to inhibit cell proliferation
Method: Cell proliferation was measured using Cell Counting Kit-8 (CCK-8, GLPBIO, Montclair, CA. Catalog No. GK10001) according to the manufacturer's instructions. HepG2 cells were seeded in a 96-well plate at 3×10^3 cells/well and incubated at 37° C. in complete medium for 24 hrs before being treated with the indicated concentrations of VIDT for 72 hrs. After treatment, cells were incubated with 10 μl CCK8 at 37° C. for 2 hrs. Absorbance at 450 nm was determined using a microplate reader. The IC50 value was calculated on the nonlinear regression fit method by the GraphPad Prism software.

[4] = test system: Wild-type mice (Trem1+/+) with CCl4 injury; assay: CCl4 liver injury, inflammatory cell infiltration at early stages of liver fibrosis; type: in vivo; settings: 25 mg/kg oral
Method: Wild-type mice (Trem1^+/+) were orally administered VJDT (25 mg/kg) 5 consecutive days prior to injury with CCl4 (2 ml/kg, diluted 1:4 in corn oil) (24 hrs) or one dosage of control corn oil (Sigma-Aldrich, St. Louis, MO, USA). Liver cells were isolated 24 hrs after CCl4 injury, perfused with calcium and magnesium-free 40° C. prewarmed HBSS solution (Corning Life Sciences, Corning, NY, USA) and digested with collagenase type I. The cell suspension was filtered through a 70 μm cell strainer and then centrifuged at 50 g for 5 min at 4° C. to eliminate hepatocytes. Cells remaining in the supernatant were layered on HISTOPAQUE®-1083 and centrifuged at 1000 g for 15 min at 4° C. without a break. The non-parenchymal cell fraction was washed once with PBS at 300 g for 10 min at 4° C., followed by flow cytometry.
Nonparenchymal cells isolated from Trem1^+/+ livers with CCl4 injury receiving VJDT treatment were analyzed by flow cytometry to evaluate the infiltration of myeloid cells. Liver-associated cells were classified into 3 populations: F4/80^+CD11b^− resident Kupffer cells, F4/80^+CD11b^+Ly6C^hiLy6G^lo monocyte-derived macrophages and F4/80^+CD11b^+Ly6C^loLy6G^hi inflammatory neutrophils.

TREM-1 [5] = biological target: T1, TREM-1; assay: TREM-1-mediated proinflammatory cytokine production by activated human neutrophils (flow cytometry); type: cell-based; set-up: endogenous in cells; host or cells: PBMCs from healthy human volunteers, gated on CD15/CD16 neutrophils; settings: IL-8, IL-6, IL-12 intracellular staining, vs MH and NCI 118818
Method: Quantification (percentage) of cytokine-positive neutrophils from untreated, Morin Hydrate (MH)-treated, 118818-treated, and VJDT 8293-treated compounds (from triplicates) was performed. Cells isolated from the same healthy volunteer have been used for indicated experiments.
PBMCs were stained cell surface markers CD15 and CD16. In addition, intracellular staining for proinflammatory cytokines, such as IL-8, IL-6 and IL-12, was performed. PBMCs were gated on CD15, CD16 markers to identify the population of neutrophils.

[6] = test system: B16F10 murine melanoma cell; assay: Wound healing assay (cell migration); type: cell-based; settings: 50 μM, 24 hrs
Method: as §2

B16F10 cells [7] = assay: CFSE cell proliferation assay; type: cell-based, murine; settings: 50 μM, 48 hrs; listed as VIDT
Method: as §2

N#CC1=CC2CN(Cc3ccccc3)C1C1C(=O)N(c3ccccc3)C(=O)C21 (stereo not shown) [Compound 118818, 9-Benzyl-1,3-dioxo-2-phenyl-2,3,3a,4,7,7a-hexahydro-1H-4,7-(epiminomethano) isoindole-5-carbonitrile]
binding and activation of TREM-1 receptor on reporter cells (GFP expression) (TREM-1 [1]): significant enhancement of GFP expression
number of neutrophils (indicating level of cytotoxicity) (neutrophils): 19,5%

Cc1ccc(NC(=O)Nc2nc3ccccc3s2)cc1NC(=O)Nc1nc2ccccc2s1 [Compound 319990]
binding and activation of TREM-1 receptor on reporter cells (GFP expression) (TREM-1 [1]): significant enhancement of GFP expression
cytotoxicity effect on reporter cells (reporter cells): higher cytotoxicity effect

O=c1c(O)c(-c2ccc(O)cc2O)oc2cc(O)cc(O)c12 [Morin Hydrate, 2′,3,4′,5,7-pentahydroxyflavone]
number of neutrophils (indicating level of cytotoxicity) (neutrophils): 24.3%

N#CC1=CC2C(=O)N(Cc3ccccc3)C1C1C(=O)N(c3ccccc3)C(=O)C21 [VJDT 8293, (3aR,7aR)-9-benzyl-1,3,8-trioxo-2-phenyl-2,3,3a,4,7,7a-hexahydro-1H-4,7-(epiminomethano) isoindole-5-carbonitrile]
cell cycle arrest (B16F10 cells [2]): significant cell cycle arrest in the S and G2 phases
IC50 [3]: 14.7 µM
infiltration of monocyte-derived macrophages in liver ([4]; 5 consecutive days prior to CCl4 (2 ml/kg), 24 hrs after injury, p<0.001): 3-6%
infiltration of inflammatory neutrophils in liver ([4]; 5 consecutive days prior to CCl4 (2 ml/kg), 24 hrs after injury, p<0.01): 8-10%
protective effect to liver injury ([4]; CCl4 injury): strong protective effect
cytokine secretion in neutrophils ([4]; compared to control group (DMSO vehicle)): significantly decreased cytokine secretion
inhibitory effect on TREM-1 mediated proinflammatory cytokine production (TREM-1 [5]): much stronger inhibitory effect
cell migration in wound healing assay [6]: significantly inhibits
cell migration in wound healing assay ([6]; listed as VIDT): significantly inhibited
cell proliferation (CFSE intensity) (B16F10 cells [7]): significantly inhibites

Cc1c(O)ccc2c(O)c(NC(=O)c3ccc4c(c3)CCC(C)(C)O4)c(=O)oc12 [compound 5157]
binding and activation of TREM-1 receptor on reporter cells (GFP expression) (TREM-1 [1]): significant enhancement of GFP expression
inhibitory effect on agonist-activated TREM-1-specific cells (TREM-1 [1]): did not provide any inhibitory effect

O=C(O)Cc1ccc(N=Nc2c(O)c(C(=O)O)cc3ccccc23)cc1 [compound 156563]
binding and activation of TREM-1 receptor on reporter cells (GFP expression) (TREM-1 [1]): significant enhancement of GFP expression
inhibitory effect on agonist-activated TREM-1-specific cells (TREM-1 [1]): did not provide any inhibitory effect
